The text below walks through data of ChEMBL document CHEMBL5120957, “SARS-CoV-2: Novel Therapeutic Approaches for Diagnosis and Treatment” (ACS Med Chem Lett, 2022).

The IC50 is the midpoint of a concentration-inhibition curve.

The assay has as its target Integrin alpha-V/beta-6 (Homo sapiens, UniProt P06756+P18564). As to the kind of experiment: Inhibition of recombinant human alphavbeta6 integrin incubated for 2 hrs by microplate reader assay. It counts as protein-complex assay.

Chain of Integrin alpha-V/beta-6 (P06756 31-889 limits assumed): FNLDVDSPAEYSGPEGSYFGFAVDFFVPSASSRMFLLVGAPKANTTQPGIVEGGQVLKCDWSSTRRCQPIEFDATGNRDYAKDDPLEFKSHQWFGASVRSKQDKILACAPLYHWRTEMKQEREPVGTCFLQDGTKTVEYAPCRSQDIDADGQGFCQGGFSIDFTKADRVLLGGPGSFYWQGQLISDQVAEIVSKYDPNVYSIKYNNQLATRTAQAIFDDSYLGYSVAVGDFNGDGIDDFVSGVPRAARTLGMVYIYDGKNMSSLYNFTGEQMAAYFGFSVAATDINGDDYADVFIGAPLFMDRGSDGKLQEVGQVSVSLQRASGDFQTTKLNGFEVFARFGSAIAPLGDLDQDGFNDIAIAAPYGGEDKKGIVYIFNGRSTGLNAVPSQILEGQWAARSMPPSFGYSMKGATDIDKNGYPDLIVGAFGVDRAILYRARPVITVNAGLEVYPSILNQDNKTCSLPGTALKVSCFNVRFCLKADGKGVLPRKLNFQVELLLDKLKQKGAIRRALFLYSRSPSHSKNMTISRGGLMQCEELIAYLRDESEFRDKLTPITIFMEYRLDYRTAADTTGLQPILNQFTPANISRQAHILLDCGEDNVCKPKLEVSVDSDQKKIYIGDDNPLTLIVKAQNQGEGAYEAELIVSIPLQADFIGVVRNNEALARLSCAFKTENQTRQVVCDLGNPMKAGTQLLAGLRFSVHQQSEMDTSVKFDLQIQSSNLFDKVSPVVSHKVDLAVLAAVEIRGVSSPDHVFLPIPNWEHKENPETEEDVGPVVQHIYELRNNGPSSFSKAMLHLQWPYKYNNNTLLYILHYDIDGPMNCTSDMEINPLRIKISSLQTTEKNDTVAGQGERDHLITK
Chain of Integrin alpha-V/beta-6 (P06756 891-1048 limits assumed): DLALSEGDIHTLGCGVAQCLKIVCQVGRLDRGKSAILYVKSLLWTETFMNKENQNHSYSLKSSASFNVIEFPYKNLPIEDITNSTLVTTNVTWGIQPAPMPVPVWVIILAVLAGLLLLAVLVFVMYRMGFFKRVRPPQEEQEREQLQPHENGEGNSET
Chain of Integrin alpha-V/beta-6 (P18564 22-788 limits assumed): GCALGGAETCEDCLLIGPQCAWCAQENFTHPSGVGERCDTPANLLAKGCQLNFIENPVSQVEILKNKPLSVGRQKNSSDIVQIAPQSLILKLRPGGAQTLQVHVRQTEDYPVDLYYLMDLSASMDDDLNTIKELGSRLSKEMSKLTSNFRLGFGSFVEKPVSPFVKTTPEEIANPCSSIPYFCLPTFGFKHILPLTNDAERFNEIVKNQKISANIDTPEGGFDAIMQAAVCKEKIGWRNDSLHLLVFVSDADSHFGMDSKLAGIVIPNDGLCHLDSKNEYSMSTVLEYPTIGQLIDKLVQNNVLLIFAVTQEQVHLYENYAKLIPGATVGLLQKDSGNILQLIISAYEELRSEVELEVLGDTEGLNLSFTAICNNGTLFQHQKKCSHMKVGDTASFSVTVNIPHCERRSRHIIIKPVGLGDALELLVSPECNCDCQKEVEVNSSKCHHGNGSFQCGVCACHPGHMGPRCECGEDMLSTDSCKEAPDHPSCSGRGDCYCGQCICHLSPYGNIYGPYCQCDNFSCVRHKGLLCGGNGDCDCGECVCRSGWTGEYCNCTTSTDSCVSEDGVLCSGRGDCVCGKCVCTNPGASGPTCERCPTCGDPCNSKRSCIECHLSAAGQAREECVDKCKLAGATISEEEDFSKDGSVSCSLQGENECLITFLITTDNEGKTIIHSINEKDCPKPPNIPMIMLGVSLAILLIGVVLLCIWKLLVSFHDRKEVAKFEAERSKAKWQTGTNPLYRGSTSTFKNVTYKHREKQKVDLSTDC

Turning to `CO[C@H](C)CN(CCCCc1ccc2c(n1)NCCC2)CC[C@H](Nc1ncnc2ccccc12)C(=O)O`, the IC50 is less than 50 nM.

Take `COCCN(CCCCc1ccc2c(n1)NCCC2)CC[C@H](Nc1cc(-n2cccn2)ncn1)C(=O)O`: the IC50 was less than 50 nM.

In the case of `COCCN(CCCCc1ccc2c(n1)NCCC2)CC[C@H](Nc1ncnc2ccccc12)C(=O)O` [BEXOTEGRAST], the IC50 was less than 50 nM.

Consider `COCCN(CCCCc1ccc2c(n1)NCCC2)CC[C@H](Nc1ncnc2cc(C(F)(F)F)ccc12)C(=O)O`, for which the IC50 is 50 nM.

For the compound `COCCN(CCCCc1ccc2c(n1)NCCC2)CC[C@H](Nc1ncnc2cc(F)ccc12)C(=O)O`, the 50% inhibitory concentration (IC50) is less than 50 nM.

With `O=C(O)[C@H](CCN(CCCCc1ccc2c(n1)NCCC2)CCC(F)F)Nc1ncnc2ccccc12`, the IC50 was less than 50 nM.
